Data as given in US20240116990A1, “Compositions and Methods of Treatment Using CRRL 191” (Mayo Foundation for Medical Education and Research, priority 2022, published 2024).
pEC50: −log10 of the molar value. Bridge positions count the residues as written; N and C are the ends.

Key:
[1] = system: Human cardiomyocytes (HCM); test: Human cardiomyocyte real-time apoptosis analysis (staurosporine-induced, Caspase-3/7 imaging); format: cell-based; details: 0.05 μM staurosporine, 90 hours, FIG. 6
Method: HCM cells are seeded in 96-well plate at approximately 80% confluency. Cells are treated with various concentrations of staurosporine (SP) to induce apoptosis. Based on the dose response curve, 0.05 μM of SP is selected to induce apoptosis in HCM.
Plates are then transferred to a time-lapsed, live imaging system IncuCyte S3 (Essen BioScience, Ann Arbor, MI) for apoptosis monitoring every 2 hours for a total of 90 hours. All treatment groups are performed in quintuplicates and repeated twice. Images are collected using the IncuCyte S3 Live-Cell Analysis System Software (Essen Bioscience, Ann Arbor, MI), and the data are analyzed for the Green Object Area of apoptotic bodies per well.

human GC-A [2] = target: T1, human GC-A (Homo sapiens, UniProt P16066); test: cGMP production in HEK293 cells overexpressing GC-A, 10 min stimulation; format: cell-based; design: Mean (intracellular cGMP): unit not given here; details: for Mean (intracellular cGMP): 10 min, HEK293 GC-A cells
T1 construct: host or cells: HEK293
T1 sequence (P16066 33-1061): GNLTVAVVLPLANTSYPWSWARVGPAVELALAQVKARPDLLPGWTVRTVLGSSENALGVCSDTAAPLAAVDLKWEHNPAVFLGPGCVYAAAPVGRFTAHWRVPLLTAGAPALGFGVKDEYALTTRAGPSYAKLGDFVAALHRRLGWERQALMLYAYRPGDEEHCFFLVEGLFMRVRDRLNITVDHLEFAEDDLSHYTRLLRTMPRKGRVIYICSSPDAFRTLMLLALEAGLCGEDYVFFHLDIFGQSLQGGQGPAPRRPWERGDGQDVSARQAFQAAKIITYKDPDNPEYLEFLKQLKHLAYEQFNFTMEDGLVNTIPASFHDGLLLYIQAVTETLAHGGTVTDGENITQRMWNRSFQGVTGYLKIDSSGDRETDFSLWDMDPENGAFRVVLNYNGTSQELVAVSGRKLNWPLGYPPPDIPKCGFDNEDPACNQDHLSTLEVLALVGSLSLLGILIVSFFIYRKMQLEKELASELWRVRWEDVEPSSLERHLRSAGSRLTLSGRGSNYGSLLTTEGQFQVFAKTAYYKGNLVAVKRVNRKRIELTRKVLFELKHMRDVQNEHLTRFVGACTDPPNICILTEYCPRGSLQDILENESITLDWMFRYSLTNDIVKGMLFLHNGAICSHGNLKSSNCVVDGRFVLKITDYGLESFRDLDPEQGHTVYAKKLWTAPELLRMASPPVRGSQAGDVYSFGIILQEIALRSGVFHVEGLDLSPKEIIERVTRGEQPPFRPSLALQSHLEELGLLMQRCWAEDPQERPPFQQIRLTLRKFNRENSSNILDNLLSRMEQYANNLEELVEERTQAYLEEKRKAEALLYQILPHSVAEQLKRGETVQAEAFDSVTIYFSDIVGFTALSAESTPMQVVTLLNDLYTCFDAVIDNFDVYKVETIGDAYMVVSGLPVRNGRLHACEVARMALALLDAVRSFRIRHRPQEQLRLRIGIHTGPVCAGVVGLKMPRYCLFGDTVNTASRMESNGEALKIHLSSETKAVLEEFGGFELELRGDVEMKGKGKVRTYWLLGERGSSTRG
Method: (§1) HEK293 cells stably transfected with human GC-A (cDNA clones from Origene, Rockville, MD) using Lipofectamine (Invitrogen, Grand Island, NY), are developed. Receptor overexpression is verified with immunofluorescence and western blotting. GC-A-transfected HEK293 (HEK/GCA) cells are maintained in Dulbecco's modified Eagle's medium (DMEM) supplemented with 10% fetal bovine serum (FBS), 100 U/ml penicillin, 100 U/ml streptomycin and 250 μg/ml G418.
(§2) Two in vitro cGMP assays are performed. Briefly, HEK/GCA cells are seeded in 48-well plates and cultured overnight to 80-90% confluency. The treatment buffer used in all experiments comprises Hank's Balanced Salt Solution (HBSS), 0.1% bovine serum albumin (BSA), 2 mM HEPES, and 0.5 mM 3-isobutyl-1-methylxanthine (IBMX, a non-specific phosphodiesterase inhibitor) (Sigma, St. Louis, MO).
(§3) After treatment, all cells are washed with phosphate buffered solution (PBS) once and lysed with 0.1M HCl.

[3] = system: Spontaneously Hypertensive Rats (SHR); test: Blood pressure in spontaneously hypertensive rats during infusion and washout; format: in vivo, rat; details: 100 pmol/kg and 300 pmol/kg doses
Method: All rat experiments are conducted following the Animal Welfare Act and the protocol is approved by the Mayo Clinic Institutional Animal Care and Use Committee (IACUC). […] Rats are included only if they are deemed healthy by the Institutional Veterinarian Department. Investigators who conduct the in vivo study are not blinded to treatments, but biochemical analysis is performed by a different investigator who is blinded to treatment.
On the day of the experiment, SHR rats are anesthetized with inactin (120 mg/kg, intraperitoneal injection, Sigma, St. Louis, MO). Rats are then kept on a heating pad at 38° C. to maintain a normal body temperature for the entire study. Vascular and bladder cannulation procedures are conducted. Briefly, a polyethylene-50 (PE-50) tube catheter is placed into one jugular vein for peptide infusion and another PE-50 tube is placed into the carotid artery for blood pressure (BP) monitoring (Sonometrics, London, Ontario, Canada) and blood sampling. After instrumentation, a 15-minute equilibrium period follows, and a 30-minute pre-infusion period is performed to collect baseline urine samples.
Four blood samples are collected to determine circulating cGMP levels: at baseline, before the end of drug infusion, at the middle of the washout clearance period, and before the end of the washout clearance period. Any blood loss in the rats is replaced with an equal volume of saline. BP is monitored and recorded every 15 minutes beginning after the initiation of peptide infusion. All collected blood are stored at −80° C. until assayed.

human GC-A [4] = target: T1, human GC-A; test: cGMP production over 6 hours in HEK/GCA cells; format: cell-based; details: 10^−8 M, FIG. 2
Method: as §1, §2, §3

physchem = details: water

Substance: H-RALLTAPRSLRRSSCFGHKIDRINHVSNLGCNSFRYRITAREDKQGWA-OH (disulfide 15-31) [CRRL 191]
- cardiomyocyte apoptosis induced by SP ([1]; 10^−6 M): greatest effect on reducing cardiomyocyte apoptosis
- cardiomyocyte apoptosis induced by SP ([1]; 10^−8 M): reduced cardiomyocyte apoptosis
- cardiomyocyte apoptosis induced by SP ([1]; 10^−10 M): reduced cardiomyocyte apoptosis
- pEC50 (human GC-A [2]): 9.32
- Mean (intracellular cGMP) (human GC-A [2]; 10^−6 M peptide): 135.48
- Mean (intracellular cGMP) (human GC-A [2]; 10^−7 M peptide): 140.84
- Mean (intracellular cGMP) (human GC-A [2]; 10^−8 M peptide): 152.04
- Mean (intracellular cGMP) (human GC-A [2]; 10^−9 M peptide): 89.94
- Mean (intracellular cGMP) (human GC-A [2]; 10^−10 M peptide): 35.57
- Mean (intracellular cGMP) (human GC-A [2]; 10^−12 M peptide): 2.57
- EC50 potency compared to ANP (human GC-A [2]; 10 minutes of stimulation): greater potency
- lowering systolic blood pressure compared to ANP ([3]; iv infusion, FIG. 8A): more effective at lowering
- lowering diastolic blood pressure compared to ANP ([3]; iv infusion, FIG. 8B): more effective at lowering
- lowering mean arterial blood pressure compared to ANP ([3]; iv infusion, FIG. 8C): more effective at lowering
- duration of blood pressure effect after peptide administration compared to ANP ([3]; washout): more sustained effect over time
- GC-A activation / cGMP production up to about 30 minutes (human GC-A [4]): increases in cGMP production at the same rate
- GC-A activation / cGMP production after 30 minutes (human GC-A [4]; up to 6 hours): continues to increase up to at least 6 hours
- solubility (physchem): ≥ 1000 µg/mL
